pIC50: −log10 of the molar value.
The compounds below were run against T1, 11β-HSD1 (Homo sapiens, UniProt P28845) (assay: In vitro inhibition of 11β-HSD1, HTRF detection of cortisol generated from cortisone by human liver microsomes). Conditions: 11β-HSD IC50 (nM), 1 hour at 37° C., pH 6.0, NADPH 200 μM, cortisone 80 nM, inhibition relative to carbenoxolone signal.
T1 construct: detecting cortisol generated from cortisterone by human liver microsomes; from tissue; host or cells: human liver microsomes
T1 sequence (P28845 whole entry): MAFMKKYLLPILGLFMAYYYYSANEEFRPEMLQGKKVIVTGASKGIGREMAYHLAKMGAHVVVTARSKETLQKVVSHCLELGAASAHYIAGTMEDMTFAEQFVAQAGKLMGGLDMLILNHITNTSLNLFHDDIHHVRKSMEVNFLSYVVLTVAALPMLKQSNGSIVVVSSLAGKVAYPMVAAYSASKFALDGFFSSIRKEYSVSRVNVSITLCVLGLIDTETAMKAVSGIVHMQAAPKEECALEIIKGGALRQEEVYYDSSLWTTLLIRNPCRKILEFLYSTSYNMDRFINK
Format: biochemical
In short: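 Cortisol formed from cortisone by human liver microsomes quantified by competitive HTRF immunoassay (XL665-cortisol, Eu-cryptate anti-cortisol antibody), 2 h detection, Em665/Em615 ratio converted via cortisol calibration curve. Percent inhibition relative to carbenoxolone signal; IC50 from curves.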

SMILES | IC50
COc1cc(C(=O)N2CC[C@@]3(C)c4cccc(O)c4C[C@@H]2C3(C)C)ccc1CN1CCCC1=O [Example 122, 1-{4-[(2R,6S)-10-Hydroxy-6,11,11-trimethyl-1,2,5,6-tetrahydro-4H-2,6-methano-benzo[d]azocine-3-carbonyl]-2-methoxy-benzyl}-pyrrolidin-2-one] | 818 nM
COc1ccc2c(c1)[C@]1(C)CCN(C(=O)c3cccnc3)[C@H](C2)[C@@H]1C [Example 107, [(2R,6R,11R)-8-Methoxy-6,11-dimethyl-1,2,5,6-tetrahydro-4H-2,6-methano-benzo[d]azocin-3-yl]-pyridin-3-yl-methanone] | 2550 nM
CC1(C)[C@H]2Cc3c(C(N)=O)cccc3[C@]1(C)CCN2C(=O)c1ccc2nc[nH]c2c1 [Example 160, (2R,6S)-3-(3H-Benzoimidazole-5-carbonyl)-6,11,11-trimethyl-1,2,3,4,5,6-hexahydro-2,6-methano-benzo[d]azocine-10-carboxylic acid amide] | 2180 nM
COc1cccc2c1C[C@H]1N(C(=O)c3ccc4nc[nH]c4c3)CC[C@]2(C)C1(C)C [Example 76, (3H-Benzoimidazol-5-yl)-[(2R,6S)-10-methoxy-6,11,11-trimethyl-1,2,5,6-tetrahydro-4H-2,6-methano-benzo[d]azocin-3-yl]-methanone] | 166 nM
CC1(C)[C@H]2Cc3cc4nccnc4cc3[C@]1(C)CCN2C(=O)c1ccc2nc[nH]c2c1 [Example 235, (3H-Benzoimidazol-5-yl)-[(7R,11S)-6,7,8,9,10,11-hexahydro-11,13,13-trimethyl-6,10-methano-pyrazino[2,3-i][3]benzazocin-8-yl]-methanone] | 95 nM
CC12CCN(C(=O)c3ccc4[nH]cnc4c3)C(Cc3cc(/C(N)=N/O)ccc31)C2(C)C (stereo not drawn) [Example 175, 3-(1H-Benzoimidazole-5-carbonyl)-N-hydroxy-6,11,11-trimethyl-1,2,3,4,5,6-hexahydro-2,6-methano-benzo[d]azocine-9-carboxamidine] | 344 nM
COC(=O)c1cccc(C(=O)N2CC[C@@]3(C)c4cccc(O)c4C[C@@H]2C3(C)C)c1 [Example 30, 3-[(2R,6S)-10-Hydroxy-6,11,11-trimethyl-1,2,5,6-tetrahydro-4H-2,6-methano-benzo[d]azocine-3-carbonyl]-benzoic acid methyl ester] | 1400 nM
CC1(C)[C@H]2Cc3c(O)cccc3[C@]1(C)CCN2C(=O)c1ccc2ncsc2c1 [Example 46, Benzothiazol-6-yl-[(2R,6S)-10-hydroxy-6,11,11-trimethyl-1,2,5,6-tetrahydro-4H-2,6-methano-benzo[d]azocin-3-yl]-methanone] | 97 nM
COC1CCN(Cc2ccc(C(=O)N3CC[C@@]4(C)c5cccc(O)c5C[C@@H]3C4(C)C)cc2)CC1 [Example 189, [(2R,6S)-10-Hydroxy-6,11,11-trimethyl-1,2,5,6-tetrahydro-4H-2,6-methano-benzo[d]azocin-3-yl]-[4-(4-methoxy-piperidin-1-ylmethyl)-phenyl]-methanone] | 2270 nM
CC12CCN(C(=O)c3ccc4nc[nH]c4c3)C(Cc3ccc(F)cc31)C2(C)C (stereo not drawn) [Example 70, (3H-Benzoimidazol-5-yl)-(8-fluoro-6,11,11-trimethyl-1,2,5,6-tetrahydro-4H-2,6-methano-benzo[d]azocin-3-yl)-methanone] | 362 nM
CC12CCN(C(=O)c3ccc4nc[nH]c4c3)C(Cc3cc(NS(C)(=O)=O)ccc31)C2(C)C (stereo not drawn) [Example 181, N-[3-(3H-Benzoimidazole-5-carbonyl)-6,11,11-trimethyl-1,2,3,4,5,6-hexahydro-2,6-methano-benzo[d]azocin-9-yl]-methanesulfonamide] | 147 nM
COc1ccc2c(c1)C[C@H]1N(C(=O)c3ccc4nc[nH]c4c3)CC[C@]2(C)C1(C)C [Example 74, (3H-Benzoimidazol-5-yl)-[(2R,6S)-9-methoxy-6,11,11-trimethyl-1,2,5,6-tetrahydro-4H-2,6-methano-benzo[d]azocin-3-yl]-methanone] | 69 nM
COc1ccc(C(=O)N2CC[C@@]3(C)c4cccc(O)c4C[C@@H]2C3(C)C)cc1 [Example 14, [(2R,6S)-10-Hydroxy-6,11,11-trimethyl-1,2,5,6-tetrahydro-4H-2,6-methano-benzo[d]azocin-3-yl]-(4-methoxy-phenyl)-methanone] | 734 nM
Cc1nc(-c2ccc3c(c2)CC2N(C(=O)c4ccc5[nH]cnc5c4)CCC3(C)C2(C)C)no1 (stereo not drawn) [Example 176, (1H-Benzoimidazol-5-yl)-[6,11,11-trimethyl-9-(5-methyl-[1,2,4]oxadiazol-3-yl)-1,2,5,6-tetrahydro-4H-2,6-methano-benzo[d]azocin-3-yl]-methanone] | 603 nM
CC1(C)[C@H]2Cc3ccccc3[C@]1(C)CCN2C(=O)c1cc(F)c(O)c(F)c1 [Example 335, (3,5-Difluoro-4-hydroxy-phenyl)-[(2R,6S)-6,11,11-trimethyl-1,2,5,6-tetrahydro-4H-2,6-methano-benzo[d]azocin-3-yl]-methanone] | 115 nM
COc1cccc2c1CC1N(C(=O)c3ccc4nc[nH]c4c3)CCC2C1(C)C (stereo not drawn) [Example 146, (3H-Benzoimidazol-5-yl)-(10-methoxy-11,11-dimethyl-1,2,5,6-tetrahydro-4H-2,6-methano-benzo[d]azocin-3-yl)-methanone] | 384 nM
CC1(C)[C@H]2Cc3ccccc3[C@]1(C)CCN2C(=O)c1cccc(O)c1 [Example 319, (3-Hydroxy-phenyl)-[(2R,6S)-6,11,11-trimethyl-1,2,5,6-tetrahydro-4H-2,6-methano-benzo[d]azocin-3-yl]-methanone] | 446 nM
CC1(C)[C@H]2Cc3c(O)cccc3[C@]1(C)CCN2C(=O)c1cccc2[nH]cnc12 [Example 18, (1H-Benzoimidazol-4-yl)-[(2R,6S)-10-hydroxy-6,11,11-trimethyl-1,2,5,6-tetrahydro-4H-2,6-methano-benzo[d]azocin-3-yl]-methanone] | 3680 nM
CC1(C)[C@H]2Cc3c(O)cccc3[C@]1(C)CCN2C(=O)c1ccc2nn[nH]c2c1 [Example 21, (3H-Benzotriazol-5-yl)-[(2R,6S)-10-hydroxy-6,11,11-trimethyl-1,2,5,6-tetrahydro-4H-2,6-methano-benzo[d]azocin-3-yl]-methanone] | 669 nM
CC1(C)C2Cc3ccccc3C1(O)CCN2C(=O)c1ccc2nc[nH]c2c1 (stereo not drawn) [Example 57, (3H-Benzoimidazol-5-yl)-(6-hydroxy-11,11-dimethyl-1,2,5,6-tetrahydro-4H-2,6-methano-benzo[d]azocin-3-yl)-methanone] | 137 nM
CC1(C)[C@H]2Cc3c(O)cccc3[C@]1(C)CCN2C(=O)c1ccc(CN2CCCCC2)cc1 [Example 22, [(2R,6S)-10-Hydroxy-6,11,11-trimethyl-1,2,5,6-tetrahydro-4H-2,6-methano-benzo[d]azocin-3-yl]-(4-piperidin-1-ylmethyl-phenyl)-methanone] | 5040 nM
COc1ccc2c(c1N)[C@]1(C)CCN(C(=O)c3ccc4nc[nH]c4c3)[C@H](C2)[C@H]1C [Example 267, (3H-Benzoimidazol-5-yl)-[(2R,6R,11S)-7-amino-8-methoxy-6,11-dimethyl-1,2,5,6-tetrahydro-4H-2,6-methano-benzo[d]azocin-3-yl]-methanone] | 66 nM
Cc1nc2cc(C(=O)N3CC[C@@]4(C)c5cccc(O)c5C[C@@H]3C4(C)C)ccc2c(=O)[nH]1 [Example 34, 7-[(2R,6S)-10-Hydroxy-6,11,11-trimethyl-1,2,5,6-tetrahydro-4H-2,6-methano-benzo[d]azocine-3-carbonyl]-2-methyl-3H-quinazolin-4-one] | 3880 nM
CC1(C)[C@H]2Cc3c(O)cccc3[C@]1(C)CCN2C(=O)c1ccccc1C#N [Example 8, 2-[(2R,6S)-10-Hydroxy-6,11,11-trimethyl-1,2,5,6-tetrahydro-4H-2,6-methano-benzo[d]azocine-3-carbonyl]-benzonitrile] | 3360 nM
CC1(C)[C@H]2Cc3cc4nc([C@@H]5CCCO5)[nH]c4cc3[C@]1(C)CCN2C(=O)c1ccc2nc[nH]c2c1 [Example 275, (3H-Benzoimidazol-5-yl)-[(6R,10S)-5,6,7,8,9,10-hexahydro-10,12,12-trimethyl-2-[(S)-tetrahydrofuran-2-yl]-6,10-methano-imidazo[5,4-i][3]benzazocin-7-yl]-methanone] | 25 nM
COc1cc2c(cc1C)C[C@H]1N(C(=O)c3ccc4nc[nH]c4c3)CC[C@]2(C)C1(C)C (stereo in doubt) [Example 62, (3H-Benzoimidazol-5-yl)-[(2R,6S)-8-methoxy-6,9,11,11-tetramethyl-1,2,5,6-tetrahydro-4H-2,6-methano-benzo[d]azocin-3-yl]-methanone] | 109 nM
C[C@H]1[C@H]2Cc3ccc(O)cc3[C@]1(C)CCN2C(=O)c1ccccc1[N+](=O)[O-] [Example 115, [(2R,6R,11R)-8-Hydroxy-6,11-dimethyl-1,2,5,6-tetrahydro-4H-2,6-methano-benzo[d]azocin-3-yl]-(2-nitro-phenyl)-methanone] | 1590 nM

Same assay, conditions: 1 hour at 37° C., pH 6.0, NADPH 200 μM, cortisone 80 nM, inhibition relative to carbenoxolone signal, read-out: 11β-HSD IC50

SMILES | pIC50
O=C(c1ccc2nc[nH]c2c1)N1CCC2CC1c1ccc(O)cc12 (stereo not drawn) [Example 100, (3H-Benzoimidazol-5-yl)-(4-hydroxy-9-aza-tricyclo[6.3.1.0*2,7*]dodeca-2,4,6-trien-9-yl)-methanone] | 6.25
CC1C2c3ccc(O)cc3CC2N(C(=O)c2ccc3nc[nH]c3c2)CC1(C)C (stereo not drawn) [Example 330, (3H-Benzoimidazol-5-yl)-(7-hydroxy-3,3,4-trimethyl-2,3,4,4a,9,9a-hexahydro-indeno[2,1-b]pyridin-1-yl)-methanone] | 7.36
O=C(c1ccc2nc[nH]c2c1)N1CCC2CC1Cc1c2[nH]c2ccccc12 (stereo not drawn) [Example 245, (3H-Benzoimidazol-5-yl)-(2,3,4,5,6,7-hexahydro-2,6-methano-azocino[5,4-b]indol-3-yl)-methanone] | 6.59

— patent US8859580B2 (Boehringer Ingelheim International GmbH, priority 2007, dated 2014)
